What was measured:
[1] = test system: p-ERK1/2; assay: Immunoblot for p-ERK1/2 (MAPK signaling) after EGF stimulation in HPV[+] and HPV[−] keratinocytes; assay type: cell-based, human; settings: cetuximab 100 μg/mL or PD98059 25 μM; 10 ng/mL EGF in SFM, 5 or 15 minutes; SG3 (HPV16[+]) and NIKS (HPV[−]) cells
Protocol: (§1) FIG. 5. […] Mock=No EGF. Cell lysates were harvested and subjected to SDS-PAGE and immunoblot for p-EGFR, total EGFR, p-ERK1/2 and GAPDH, a loading control.
(§2) Western blot was performed (FIG. 5) and cell viability determined with MTT assay and clonogenic assays performed as described (FIG. 7) (Meira et al., 2009, Euro J Cancer 45:1265-1273).

[2] = test system: HPV[+] human keratinocytes; assay: MTT cell viability assay, HPV[+] cells; assay type: cell-based; settings: cetuximab 50, 100, 200 μg/mL; PD98059 12.5, 25, 50 μM; MTT after 72 hours (seven days)
Protocol: (§3) FIG. 7. […] The boxes indicate the same concentrations used in the FIG. 3 and FIG. 5. MTT assays were performed to assess cell viability. Error bars represent SEM (N=3).
as §2
(§4) The proliferative capacity of MAPK inhibitor-treated cells compared to untreated cells was measured by MTT assay after 72 hours to determine the surviving fractions (FIG. 7).

[3] = test system: HPV[−] human keratinocytes; assay: MTT cell viability assay, HPV[−] cells; assay type: cell-based; settings: cetuximab 50, 100, 200 μg/mL; PD98059 12.5, 25, 50 μM; MTT after 72 hours (seven days)
Protocol: as §3, §2, §4

[4] = test system: EGFR; assay: Immunoblot for p-EGFR after EGF stimulation in HPV[+] and HPV[−] keratinocytes; assay type: cell-based, human; settings: cetuximab 100 μg/mL or PD98059 25 μM; 10 ng/mL EGF in SFM, 5 or 15 minutes; SG3 (HPV16[+]) and NIKS (HPV[−]) cells
Protocol: as §1, §2

[5] = test system: HPV16 E1^E4 early mRNA; assay: RT-qPCR of HPV16 E1^E4 early mRNA in HPV[+] HFK cells; assay type: cell-based; settings: cetuximab 100 μg/mL or PD98059 25 μM, 24-96 hours
Protocol: HPV16 E1̂E4 early mRNA levels in response to treatment with EGFR or MAPK inhibitors. […] Total RNA harvested at indicated time points was subjected to RT and then to qPCR for β-actin and HPV16 E1̂E4 quantification. […] Data are the result of two separate experiments.
Total RNA harvested at 24 hours, 48 hours, 72 hours, or 96 hours was subjected to RT and then to qPCR for β-actin and HPV16 E1̂E4 quantification.
(§5) TURBO DNA-free Kit (Ambion) to remove co-purifying viral and cellular DNA. Reverse transcription (RT) of total RNAs (0.2-0.5 μg) was performed using random hexamer primers and ABI reagents (Applied Biosystems). For quantitative PCR (qPCR), 2 μl of each cDNA or total DNA was analyzed in triplicate using the SYBR Green I kit on the iCycler (Bio-Rad Laboratories, Inc., Hercules, Calif.).

[6] = test system: HPV16 viral genome; assay: qPCR of HPV16 LCR (viral genome number) in HPV[+] HFK cells; assay type: cell-based; settings: cetuximab 100 μg/mL or PD98059 25 μM, two to six days after treatment
Excerpt: Response of HPV16 viral genome number to EGFR or MAPK Inhibitors. […] Total DNA harvested at indicated time points was subjected to qPCR for HPV16 LCR quantification. […] Data are the result of 2 separate experiments. (* p<0.05, ** p<0.01).
Total DNA harvested at two days, three days, four days, five days, or six days after treatment was subjected to qPCR (SYBR Green I kit on the BioRad iCycler) for HPV16 LCR quantification. […] Total RNAs were extracted from cells using TRIzol (Invitrogen), and processed with the
as §5

For `COc1cccc(-c2cc(=O)c3ccccc3o2)c1N` [PD98059], the “downstream / MAPK signaling (p-ERK1/2)” value [1] was “blocked MAPK signaling”, the “viability of HPV[+] cells (MTT)” value [2] was “dose-dependent decrease in viability” and the “viability of HPV[−] cells (MTT)” value [3] was “dose-dependent decrease in viability”. For the same compound, the “EGFR activation (p-EGFR)” value [4] was “did not affect EGFR activation”, the “HPV16 E1^E4 transcript levels” value [5] was “decrease is statistically significant after 48 hours of treatment” and the “HPV16 genome levels (LCR qPCR) compared to mock treated” value [6] was “statistically significant decrease in HPV16 genome levels”.

Source: patent US20160053026A1, “METHODS FOR TREATING INFECTION BY HPV” (STC.UNM, priority 2011, published 2016)
